# Entries after “also recorded” stand apart in the source; their conditions may differ.
# Assays:
# Type in all cases: cell-based, human
# pEBS7 (ATM-null) cells [1] = assay: Chemopotentiation, sulforhodamine B growth assay in 96 well plates; settings: for % survival / Avg (absorbance at 564 nm): pEBS7
# Experimental: (§1) The A-T fibroblast AT221JE-T cells (pEBS7, herein referred to as ATM-null cells) and the trans-complemented ATM+/+ (pEBS7-YZ5, herein referred to as ATM-competent cells) were grown in DMEM+20% FBS PSG and 100 ug/ml hygromycin. These cells are immortalised fibroblasts from an A-T patient which were transfected with pEBS7-YZ5 vector coding for full length ATM and the hygromycin resistance marker or pEBS7 vector, coding for the hygromycin resistance marker only. (Ziv Y et al (1997) Oncogene 15, 159-67)
# (§2) Following a 4-hour incubation to allow cell adherence, 5 μl DNA-PKcS inhibitor KU-0060648 (final concentration 0.5 μM) or DMSO/PBS equivalent was added. After a further 1 hour incubation, 5 μl of chemotherapeutic drug was added per well (see table 1). Drugs were removed after 16 hours and 150 μl fresh medium added per well. After 24h, one plate for each cell line was fixed and stained to account for background differences between the lines. Five days after seeding, the medium was aspirated from the wells of the remaining assay plates and 100 μl ice cold 10% TCA added for 30 minutes at 4° C. The wells were then washed four times with tap water and 50 μl 0.4% sulforhodamine B in 1% acetic acid added per well. After 15 minutes incubation at room temperature, excess stain was washed from the wells with 1% acetic acid. 100 μl […] pH6.8 was then added per well, the plates shaken to resuspend the stain and the absorbance at 564 nm determined.
# [2] = tested on: pEBS7-YZ5 (ATM-competent, ATM+/+) cells; assay: as above; settings: for % survival / Avg (absorbance at 564 nm): pEBS7-YZ
# Experimental: as §1, §2
# pEBS7 (ATM-null) cells [3] = assay: Radio-potentiation, colony formation after ionising radiation; settings: for % survival: ATM-null pEBS7
# Experimental: as §1
# (§3) To show radio-potentiation, 2×10^5 cells per well were seeded into 6 well cluster plates. One plate was used for each dose of irradiation. After allowing the cells to adhere for 4 hours, the cells were dosed with a final concentration of 0.5 μM of the DNA-PKcs inhibitor KU-0060648 or equivalent DMSO/PBS control. After further incubation for 1 hour, the cells were irradiated with 0, 0.5, 1, 2 and 4 Grays. After 16 hours incubation, the cells were washed with 1 ml PBS and 500 μl trypsin EDTA added for 5 minutes at 37° C. 1.5 ml fresh medium was then added and the cell density in the untreated (0 Gy) wells determined. All subsequent calculations for seeding densities were performed according to this cell count. Cells were then replated into 2 mls fresh medium in 6 well cluster plates at the appropriate cell densities. After 6 days' incubation, the medium was removed by aspiration and cell colonies stained using 400 μl per well Giemsa stain for 20 minutes. Excess stain was washed from the plates with tap water and the plates left to air-dry. The number of colonies per well was then counted using Colcount software.
# [4] = tested on: pEBS7-YZ5 (ATM-competent, ATM+/+) cells; assay: as above; settings: for % survival: ATM-competent pEBS7-YZ
# Experimental: as §1, §3
# [5] = KU-0060648 0.5 μM + doxorubicin 0
# [6] = KU-0060648 0.5 μM + doxorubicin 0.01 (unit not given)
# [7] = KU-0060648 0.5 μM + doxorubicin 0.025 (unit not given)
# [8] = KU-0060648 0.5 μM + doxorubicin 0.05 (unit not given)
# [9] = KU-0060648 0.5 μM + doxorubicin 0.075 (unit not given)
# [10] = KU-0060648 0.5 μM + doxorubicin 0.1 (unit not given)
# [11] = KU-0060648 0.5 μM + doxorubicin 0.25 (unit not given)
# [12] = KU-0060648 0.5 μM + doxorubicin 0.5 (unit not given)
# [13] = KU-0060648 0.5 μM + doxorubicin 0.75 (unit not given)
# [14] = KU-0060648 0.5 μM + doxorubicin 1 (unit not given)
# [15] = KU-0060648 0.5 μM + doxorubicin 2.5 (unit not given)
# [16] = KU-0060648 0.5 μM + doxorubicin 5 (unit not given)
# [17] = KU-0060648 0.5 μM + etoposide 0
# [18] = KU-0060648 0.5 μM + etoposide 0.01 (μg/ml per Table 1)
# [19] = KU-0060648 0.5 μM + etoposide 0.025 (μg/ml per Table 1)
# [20] = KU-0060648 0.5 μM + etoposide 0.05 (μg/ml per Table 1)
# [21] = KU-0060648 0.5 μM + etoposide 0.075 (μg/ml per Table 1)
# [22] = KU-0060648 0.5 μM + etoposide 0.1 (μg/ml per Table 1)
# [23] = KU-0060648 0.5 μM + etoposide 0.25 (μg/ml per Table 1)
# [24] = KU-0060648 0.5 μM + etoposide 0.5 (μg/ml per Table 1)
# [25] = KU-0060648 0.5 μM + etoposide 0.75 (μg/ml per Table 1)
# [26] = KU-0060648 0.5 μM + etoposide 1 (μg/ml per Table 1)
# [27] = KU-0060648 0.5 μM + etoposide 2.5 (μg/ml per Table 1)
# [28] = KU-0060648 0.5 μM + etoposide 5 (μg/ml per Table 1)
smiles,measurement,setting,value
"CCN1CCN(CC(=O)Nc2ccc(-c3cccc4c(=O)cc(N5CCOCC5)oc34)c3sc4ccccc4c23)CC1 [KU-0060648, 2-(4-Ethyl-piperazin-1-yl)-N-[4-(2-morpholin-4-yl-4-oxo-4H-1-benzopyran-8-yl)-dibenzothiophen-1-yl]-acetamide]",potentiation of etoposide,pEBS7 (ATM-null) cells [1]; ATM-null cells,increased sensitisation; also recorded: significantly potentiated
same,potentiation of the effect of doxorubicin,pEBS7 (ATM-null) cells [1]; ATM-null cells,increased sensitivity; also recorded: significantly potentiate
same,% survival,pEBS7 (ATM-null) cells [1]; [5],100%
same,Avg (absorbance at 564 nm),pEBS7 (ATM-null) cells [1]; [5],1.42
same,% survival,pEBS7 (ATM-null) cells [1]; [6],107.9%
same,Avg (absorbance at 564 nm),pEBS7 (ATM-null) cells [1]; [6],1.53
same,% survival,pEBS7 (ATM-null) cells [1]; [7],87.0%
same,Avg (absorbance at 564 nm),pEBS7 (ATM-null) cells [1]; [7],1.23
same,% survival,pEBS7 (ATM-null) cells [1]; [8],81.3%
same,Avg (absorbance at 564 nm),pEBS7 (ATM-null) cells [1]; [8],1.15
same,% survival,pEBS7 (ATM-null) cells [1]; [9],82.3%
same,Avg (absorbance at 564 nm),pEBS7 (ATM-null) cells [1]; [9],1.17
same,% survival,pEBS7 (ATM-null) cells [1]; [10],88.7%
same,Avg (absorbance at 564 nm),pEBS7 (ATM-null) cells [1]; [10],1.26
same,% survival,pEBS7 (ATM-null) cells [1]; [11],22.1%
same,Avg (absorbance at 564 nm),pEBS7 (ATM-null) cells [1]; [11],0.31
same,% survival,pEBS7 (ATM-null) cells [1]; [12],6.2%
same,Avg (absorbance at 564 nm),pEBS7 (ATM-null) cells [1]; [12],0.09
same,% survival,pEBS7 (ATM-null) cells [1]; [13],0.6%
same,Avg (absorbance at 564 nm),pEBS7 (ATM-null) cells [1]; [13],0.01
same,% survival,pEBS7 (ATM-null) cells [1]; [14],−2.2%
same,Avg (absorbance at 564 nm),pEBS7 (ATM-null) cells [1]; [14],−0.03
same,% survival,pEBS7 (ATM-null) cells [1]; [15],−2.0%
same,Avg (absorbance at 564 nm),pEBS7 (ATM-null) cells [1]; [15],−0.03
same,% survival,pEBS7 (ATM-null) cells [1]; [16],−0.8%
same,Avg (absorbance at 564 nm),pEBS7 (ATM-null) cells [1]; [16],−0.01
same,% survival,pEBS7 (ATM-null) cells [1]; [17],100%
same,Avg (absorbance at 564 nm),pEBS7 (ATM-null) cells [1]; [17],1.61
same,% survival,pEBS7 (ATM-null) cells [1]; [18],84.7%
same,Avg (absorbance at 564 nm),pEBS7 (ATM-null) cells [1]; [18],1.36
same,% survival,pEBS7 (ATM-null) cells [1]; [19],72.7%
same,Avg (absorbance at 564 nm),pEBS7 (ATM-null) cells [1]; [19],1.17
same,% survival,pEBS7 (ATM-null) cells [1]; [20],72.7%
same,Avg (absorbance at 564 nm),pEBS7 (ATM-null) cells [1]; [20],1.17
same,% survival,pEBS7 (ATM-null) cells [1]; [21],62.3%
same,Avg (absorbance at 564 nm),pEBS7 (ATM-null) cells [1]; [21],1.00
same,% survival,pEBS7 (ATM-null) cells [1]; [22],27.9%
same,Avg (absorbance at 564 nm),pEBS7 (ATM-null) cells [1]; [22],0.45
same,% survival,pEBS7 (ATM-null) cells [1]; [23],13.6%
same,Avg (absorbance at 564 nm),pEBS7 (ATM-null) cells [1]; [23],0.22
same,% survival,pEBS7 (ATM-null) cells [1]; [24],7.9%
same,Avg (absorbance at 564 nm),pEBS7 (ATM-null) cells [1]; [24],0.13
same,% survival,pEBS7 (ATM-null) cells [1]; [25],1.2%
same,Avg (absorbance at 564 nm),pEBS7 (ATM-null) cells [1]; [25],0.02
same,% survival,pEBS7 (ATM-null) cells [1]; [26],−0.4%
same,Avg (absorbance at 564 nm),pEBS7 (ATM-null) cells [1]; [26],−0.01
same,% survival,pEBS7 (ATM-null) cells [1]; [27],−1.5%
same,Avg (absorbance at 564 nm),pEBS7 (ATM-null) cells [1]; [27],−0.02
same,% survival,pEBS7 (ATM-null) cells [1]; [28],−1.7%
same,Avg (absorbance at 564 nm),pEBS7 (ATM-null) cells [1]; [28],−0.03
same,potentiation of etoposide,[2]; ATM-competent cells,not
same,potentiation of the effect of doxorubicin,[2]; ATM-competent cells,not
same,% survival,[2]; [5],100%
same,Avg (absorbance at 564 nm),[2]; [5],1.62
same,% survival,[2]; [6],92.3%
same,Avg (absorbance at 564 nm),[2]; [6],1.50
same,% survival,[2]; [7],96.1%
same,Avg (absorbance at 564 nm),[2]; [7],1.56
same,% survival,[2]; [8],102.9%
same,Avg (absorbance at 564 nm),[2]; [8],1.67
same,% survival,[2]; [9],94.1%
same,Avg (absorbance at 564 nm),[2]; [9],1.53
same,% survival,[2]; [10],98.5%
same,Avg (absorbance at 564 nm),[2]; [10],1.60
same,% survival,[2]; [11],80.4%
same,Avg (absorbance at 564 nm),[2]; [11],1.30
same,% survival,[2]; [12],36.6%
same,Avg (absorbance at 564 nm),[2]; [12],0.59
same,% survival,[2]; [13],23.4%
same,Avg (absorbance at 564 nm),[2]; [13],0.38
same,% survival,[2]; [14],1.1%
same,Avg (absorbance at 564 nm),[2]; [14],0.02
same,% survival,[2]; [15],−2.1%
same,Avg (absorbance at 564 nm),[2]; [15],−0.03
same,% survival,[2]; [16],−1.9%
same,Avg (absorbance at 564 nm),[2]; [16],−0.03
same,% survival,[2]; [17],100%
same,Avg (absorbance at 564 nm),[2]; [17],1.79
same,% survival,[2]; [18],88.8%
same,Avg (absorbance at 564 nm),[2]; [18],1.59
same,% survival,[2]; [19],84.9%
same,Avg (absorbance at 564 nm),[2]; [19],1.52
same,% survival,[2]; [20],87.2%
same,Avg (absorbance at 564 nm),[2]; [20],1.56
same,% survival,[2]; [21],86.1%
same,Avg (absorbance at 564 nm),[2]; [21],1.54
same,% survival,[2]; [22],88.9%
same,Avg (absorbance at 564 nm),[2]; [22],1.59
same,% survival,[2]; [23],102.7%
same,Avg (absorbance at 564 nm),[2]; [23],1.84
same,% survival,[2]; [24],55.0%
same,Avg (absorbance at 564 nm),[2]; [24],0.99
same,% survival,[2]; [25],27.6%
same,Avg (absorbance at 564 nm),[2]; [25],0.49
same,% survival,[2]; [26],4.5%
same,Avg (absorbance at 564 nm),[2]; [26],0.08
same,% survival,[2]; [27],5.7%
same,Avg (absorbance at 564 nm),[2]; [27],0.10
same,% survival,[2]; [28],8.6%
same,Avg (absorbance at 564 nm),[2]; [28],0.15
same,potentiation of the effect of irradiation,pEBS7 (ATM-null) cells [3]; ATM-null cells,increased sensitivity; also recorded: significantly potentiate
same,% survival,pEBS7 (ATM-null) cells [3]; KU-0060648 0.5 μM + IR 0 Gy,100.0%
same,% survival,pEBS7 (ATM-null) cells [3]; KU-0060648 0.5 μM + IR 0.5 Gy,15.8%
same,% survival,pEBS7 (ATM-null) cells [3]; KU-0060648 0.5 μM + IR 1 Gy,3.8%
same,% survival,pEBS7 (ATM-null) cells [3]; KU-0060648 0.5 μM + IR 2 Gy,1.3%
same,% survival,pEBS7 (ATM-null) cells [3]; KU-0060648 0.5 μM + IR 4 Gy,0.3%
same,2Gy DMR (dose modification ratio),"pEBS7 (ATM-null) cells [3]; single 2 Gy without / with KU-0060648 (0.5 μM), pEBS7 (ATM-null)",5.7
same,potentiation of the effect of irradiation,[4]; ATM-competent cells,not
same,% survival,[4]; KU-0060648 0.5 μM + IR 0 Gy,100.0%
same,% survival,[4]; KU-0060648 0.5 μM + IR 0.5 Gy,39.3%
same,% survival,[4]; KU-0060648 0.5 μM + IR 1 Gy,13.5%
same,% survival,[4]; KU-0060648 0.5 μM + IR 2 Gy,6.2%
same,% survival,[4]; KU-0060648 0.5 μM + IR 4 Gy,1.7%
same,2Gy DMR (dose modification ratio),"[4]; single 2 Gy without / with KU-0060648 (0.5 μM), pEBS7-YZ (ATM-competent)",2.0
